Here are results for 27 compounds from PubChem BioAssay (NCI).

Where “and” joins values, the source holds several entries; their conditions need not be identical. Equal entries are not always repeated.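 Following 48 hours of exposure in 96-well plates, responses at five concentrations were used to interpolate endpoints linearly. GI50: concentration for 50% inhibition of growth. TGI denotes the concentration required for complete inhibition of growth.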

Common to all, as to assay: NCI anticancer screen, dose series, 48 h
Assay [1] concerns HOP-92 NSCLC.
Assay [2] concerns SNB-75 CNS.
The subject of assay [3] is LOX IMVI melanoma.
For assay [4], the system named is MOLT-4 leukemia.
The test system of assay [5] is HOP-62 NSCLC.
Assay [6] deals with OVCAR-3 ovarian.
For assay [7], the system named is SNB-19 CNS.
Assay [8] has as its system SF-295 CNS.
For assay [9], the system named is U251 CNS.
Assay [10] concerns MDA-MB-435.

Turning to `COc1cc(N2C(=O)[C@H](Cl)C2c2ccc(SC)cc2)cc(OC)c1OC` (stereo partly drawn), the GI50 in assay [1] was 0.214 µM; in [2] it was 0.0236 µM; in assay [3] it was 0.0635 µM; in assay [4], 0.284 µM; in [5], 0.263 µM; in assay [6], 0.0294 µM. For the same compound, the GI50 in [7] was 0.0965 µM; in assay [8] it was 0.0394 µM; in assay [9] it was 0.124 µM. Also, the TGI was over 100 µM in assay [1]; over 100 µM in assay [2]; over 100 µM in assay [3]; over 100 µM in assay [4]; over 100 µM in assay [5]; 0.089 µM in assay [6]. Besides, the TGI in [7], in assay [8] and in [9] was over 100 µM in each case.

In the case of `CC(=O)[CH-]C(C)=O.CC(=O)[CH-]C(C)=O.[O-]c1ccccc1.[O-]c1ccccc1.[Ti+4]`, the GI50 in assay [1], in assay [2], in [3], in assay [4], in [7] and in assay [8] was over 100 µM each time. For the same compound, in assay [9], the GI50 is over 100 µM. Further, the TGI in [1], in [2], in assay [3], in [4], in [7] and in assay [8] was over 100 µM in each case. The same compound came in with a TGI in [9] of over 100 µM.

With `Cc1ccccc1NC(=O)CSc1nnc(-c2ccc(N=Cc3ccc(Cl)cc3)cc2)o1`, the TGI in assay [2], in assay [3], in assay [4], in assay [5], in assay [7] and in [8] was over 100 µM in each case. The compound also came in with a TGI in assay [9] of over 100 µM.

Turning to `O=C1NC(O)n2c(=O)[nH]c(=O)n21` (stereo not drawn), the TGI in assay [1], in [2], in [3], in assay [4], in [5] and in assay [6] was over 100 µM throughout. Further, the TGI in assay [7], in assay [8] and in assay [9] was over 100 µM in each case.

In the case of `c1ccc2c(c1)[nH]c1c2nc2ccccn21`, the TGI was over 100 µM in [1]; over 100 µM in [2]; over 100 µM in [4]; over 100 µM in assay [5]; 59.8 µM and > 100 µM in assay [6]; over 100 µM in assay [7]. Further, the TGI in assay [8] and in assay [9] was over 100 µM in each case. Moreover, the GI50 in assay [2] is 45.6 µM and > 100 µM.

In the case of `COc1cc2c(cc1OCCNC(=O)/C=C1\C[C@H]3C=Nc4cc(OCc5ccccc5)c(OC)cc4C(=O)N3C1)N=C[C@@H]1CCCN1C2=O`, the GI50 in assay [3] is 2.75 µM; in assay [10] it was 2.97 µM; in assay [5], 4.27 µM; in [6], 2.19 µM; in assay [7], 8.62 µM; in assay [8], 18.3 µM. Also, the GI50 in assay [9] is 2.82 µM. Moreover, the TGI was 7.31 µM in [3]; 9.79 µM in [10]; 23.6 µM in [5]; 5.49 µM in [6]; over 100 µM in assay [7]; over 100 µM in assay [8]. The TGI in [9] was 8.35 µM.

Take `COc1cc2c(cc1C)NC(=O)/C2=C/c1ccnc2ccccc12`: the GI50 in assay [1] is 12.4 µM; in [4] it was over 50 µM; in [10], 11.4 µM; in assay [5], over 50 µM; in assay [6] it was 18.4 µM; in assay [7], 6.88 µM. For the same compound, the GI50 in assay [8] was 25.3 µM; in assay [9] it was 9.92 µM. Moreover, the TGI in [1] was over 50 µM; in assay [4] it was over 50 µM; in [10], over 50 µM; in [5], over 50 µM; in assay [6], over 50 µM; in [7], 36.3 µM. In addition, the TGI is over 50 µM in assay [8] and 35.9 µM in assay [9].

`Cc1cc(=O)[nH]c(NNC(C#N)c2cccc([N+](=O)[O-])c2)n1` (stereo not drawn): the TGI in [1], in assay [2], in assay [3], in [4], in assay [5] and in assay [6] was over 100 µM throughout. Besides, the TGI in [8] and in assay [9] was over 100 µM throughout.

Take `CC(C)(C)C#COC(=O)c1ccccc1`: the TGI in assay [3], in [4], in [5], in assay [6], in assay [7] and in [8] was over 100 µM in each case. Besides, the TGI in assay [9] is over 100 µM.

As for `O=c1c2cccnc2ncn1CCCN1CCCCC1`, the TGI in assay [1], in assay [2], in assay [3], in assay [4], in assay [5] and in assay [6] was over 100 µM each time. The TGI in assay [7], in assay [8] and in assay [9] was over 100 µM each time.

As to `CCOc1ccc(NC(=O)/C(CC(=O)c2c[n+](=O)c3ccccc3n2[O-])=N\OCCCc2ccccc2)cc1`, the TGI in assay [1] is 99.6 µM; in assay [2], over 100 µM; in [4], over 100 µM; in assay [5] it was over 100 µM; in assay [6], over 100 µM; in assay [7], over 100 µM. The TGI in [8] and in assay [9] was over 100 µM in each case.

Take `O=C1CC23CCCCCCCCCCC2(C1)CC(=O)C3` (stereo not drawn): the TGI in assay [1] was 51.8 µM; in [4], 56.2 µM; in assay [6] it was 41.5 µM; in [7], 76.3 µM; in assay [8], over 100 µM; in assay [9], 75.6 µM.

For the compound `Cc1cccc(N2C(=O)/C(=C/C(Cl)=C/c3ccc([N+](=O)[O-])cc3)SC2=S)c1C`, the GI50 in assay [3] is 1.42 µM; in assay [4], 1.02 µM; in [5], 2.69 µM; in assay [6], 1.83 µM; in assay [7], 2.9 µM; in assay [8], 2.28 µM. Moreover, in [9], the GI50 is 1.95 µM. Moreover, the TGI in assay [3] is 3.25 µM; in [4], over 100 µM; in assay [5], 9.02 µM; in assay [6], 3.87 µM; in assay [7] it was over 100 µM; in assay [8], 5.25 µM. The TGI in [9] turned out to be 5.94 µM.

As to `C=C(C)C1CC(=O)C(C)=C(O)C1` (stereo not drawn), the TGI in assay [2], in assay [3], in assay [4], in assay [5], in [7] and in [8] was over 100 µM each time. Moreover, the TGI in [9] was over 100 µM.

As for `O=C1c2ccccc2-c2nc3ccncc3n21`, the TGI in [1], in assay [2], in assay [4], in assay [5], in assay [6] and in assay [7] was over 100 µM in each case. Further, the TGI in [8] and in assay [9] was over 100 µM throughout.

On to `COC1(OC)C2(Cl)C3=CCCC=C3C1(Cl)C(Cl)=C2Cl`, for which the TGI in assay [1] was 70.1 µM; in assay [2], over 100 µM; in [3], 30.2 µM; in assay [4] it was 76.9 µM; in assay [5], 71.1 µM; in [6], 43.8 µM. The TGI in [7] was over 100 µM; in assay [8] it was 74.2 µM; in [9], 82.1 µM.

For the compound `COc1cc(C)c2c(c1)CN1CN2Cc2cc(OC)cc(C)c21`, the TGI in [1] is over 100 µM; in [2], 46.3 µM; in assay [3] it was over 100 µM; in assay [4], over 100 µM; in assay [5], over 100 µM; in assay [6], 54.2 µM. Moreover, the TGI in assay [8] and in assay [9] was over 100 µM each time.

For the compound `Cc1cccc(C)c1NC(=O)C(=O)Cc1nc2ccccc2s1`, the TGI in [1], in assay [2], in assay [3], in assay [5], in assay [6] and in assay [7] was over 100 µM in each case. Further, the TGI in [8] and in assay [9] was over 100 µM in each case.

In the case of `C/C(=N/NC(=S)Nc1ccccc1)c1nc2ccc(Cl)cc2[nH]1`, the GI50 in assay [1] is 0.585 µM; in [2], 0.328 µM; in assay [4], 0.086 µM; in assay [5], 0.101 µM; in assay [6], 0.0777 µM; in assay [7], 0.25 µM. The GI50 in assay [9] is 0.0996 µM. Further, the TGI was found to be 1.52 µM in [1]; 1.04 µM in assay [2]; 1.1 µM in assay [4]; 0.935 µM in assay [5]; 1.26 µM in assay [6]; 1.71 µM in assay [7]. In assay [9], this compound displayed a TGI of 1.02 µM.

For the compound `Cn1c(=O)oc2cc(C3CCC(=O)N3Cc3csc(-c4ccccc4)n3)ccc21` (stereo not drawn), the TGI in [2], in assay [3], in [4], in assay [5], in assay [7] and in assay [8] was over 100 µM each time. Besides, the TGI in assay [9] was over 100 µM.

Regarding `Cc1cc(Cl)ccc1NC(=O)CCCC(=O)C1C/C(=N/O)CC/C1=N\O` (stereo not drawn), the TGI in assay [1], in [2], in assay [4], in [5], in assay [6] and in [7] was over 100 µM in each case. Besides, the TGI in assay [8] and in assay [9] was over 100 µM each time.

Take `O=c1c(Cc2ccccc2)c(O)cc2n1CCC2`: the TGI in [1], in assay [2], in [3], in assay [4], in [5] and in [6] was over 100 µM in each case. In addition, the TGI in assay [7], in assay [8] and in [9] was over 100 µM in each case.

Take `CN1CCN(C2=NC(=O)/C(=C\c3ccc(N(C)C)cc3)S2)CC1`: the GI50 in [2] is 48.2 µM; in [3], 75.1 µM; in assay [4], 42.2 µM; in [10] it was over 100 µM; in assay [5] it was over 100 µM; in assay [6], over 100 µM. The GI50 in [7], in [8] and in assay [9] was over 100 µM each time. Further, the TGI in assay [2], in [3], in assay [4], in assay [10], in [5] and in assay [6] was over 100 µM each time. In addition, the TGI in [7], in assay [8] and in assay [9] was over 100 µM in each case.

In the case of `CN1CCCC2[C@@H]3CCC4c5nonc5CC[C@]4(C)C3CC[C@@]21C` (stereo partly drawn), the TGI in [2], in assay [4], in assay [7], in assay [8] and in assay [9] was over 100 µM throughout.

`O=c1[nH]ccc(CNC23CC4CC(CC(C4)C2)C3)c1O`: the TGI in assay [2], in [4], in assay [5], in assay [6], in assay [7] and in assay [8] was over 100 µM in each case. Moreover, the TGI in [9] is over 100 µM.

With `Cc1cc2c(c(C(=O)O)c1C)-c1cccc(Cl)c1C2=O`, the TGI in assay [2], in assay [3], in assay [4], in [5], in assay [6] and in assay [7] was over 100 µM in each case. For the same compound, the TGI in assay [8] and in [9] was over 100 µM throughout.

Regarding `OCC(O)C(O)C(O)C(/C=N\Nc1ncnc2c(Br)cc(Br)cc12)=N/Nc1ncnc2c(Br)cc(Br)cc12` (stereo not drawn), the TGI in assay [3] is 31.4 µM and > 100 µM; in [4] it was 34.3 µM and > 100 µM; in [10] it was 21.7 µM and > 100 µM; in assay [6], 16.5 µM and > 100 µM. The GI50 in assay [4] was 4.91 µM and 2.37 µM; in [10], 5.24 µM and 12.6 µM; in [5], 2.05 µM and 9.09 µM; in [8], 2.46 µM and 10.9 µM.
